Two compounds from US12636284B2, “Compositions for use in the prevention and/or treatment of intellectual disability and neurodegenerative diseases in a subject with down syndrome” (UNIVERSITA' DEGLI STUDI DI ROMA “LA SAPIENZA”, priority 2021, dated 2026) can be followed below.

One assay deals with DYRK1A protein. Briefly: DYRK1A protein levels in primary hippocampal neurons isolated from Ts2Cje mice. As to conditions: 1, 5, 10 μM for 24 hours, vs untreated Ts2Cje. Format: cell-based, mouse. How it is done: For Western blots, 20 μg of proteins from the hippocampus of mice belonging to the four experimental groups were separated by 4-15% SDS-PAGE Criterion™ TGX (Tris-Glyicine eXtended) Stain-Free™ (Bio-rad, Hercules, CAUSE). This type of gel allows a rapid acquisition of the protein run in the ultraviolet (UV) by Chemidoc™ MP imaging systems (Bio-rad, Hercules, CA, USA). Therefore, the gel, once the image has been acquired, represents the total of the loaded proteins (Total Load), which will then be used to normalize the specific proteins to be examined. After electrophoresis and gel imaging, proteins are transferred via the semi-dry TransBlot Turbo apparatus (Bio-Rad Laboratories) onto nitrocellulose membranes (Bio-Rad, Hercules, CA, USA). Nitrocellulose membranes are blocked with 3% bovine serum albumin (BSA) in a solution of Tween 20-TBS and incubated overnight at 4° C. using specific primary antibodies: p(T216)-GSK3B (1:1000, Santa Cruz, #sc-135653), p(S9)-GSK3β (1:1000, Cell Signaling, #5558S), GSK3β (1:1000 Abcam, #93926) and DYRK1A (1:1000, Cell Signaling, #8765S), MAPK44/42 (1:1000, Cell Signaling, #9102), p(Thr202/Tyr204)-MAPK44/42 (1 1000, Cell Signaling, #9101), Akt (1:2000, Bio-Rad, # vma00253K), p(S473) Akt (1:1000, Cell Signaling, #4060S). After three washes with a T-TBS buffer solution, membranes were incubated for 1 hour at room temperature with the secondary antibodies. Secondary antibodies with peroxidase activity are anti-mouse or anti-rabbit (1:5000, Bio-rad, Hercules, CA, USA). Membranes were developed using Clarity Enhanced Chemiluminescence (ECL), a chemiluminescent substrate (Bio-rad, Hercules, CA, USA) and acquired with Chemidoc Mp (Bio-rad, Hercules, CA, USA). Finally, the results obtained were analyzed using the ImageLab program (Bio-rad, Hercules, CA, USA).
In order to isolate primary hippocampal neurons, hippocampi from Ts and euploid mice were mechanically dissociated in PBS (with Ca^2+ and Mg^2−) and centrifuged (3 minutes, 1100 rpm, 25° C.). […]

A further assay relates to GSK3b protein. In words: GSK3b activation (pSer9/pTyr216 ratio) in primary hippocampal neurons isolated from Ts2Cje mice. In kind it is cell-based, mouse. Particulars: 1, 5, 10 μM for 24 hours. The protocol: For Western blots, 20 μg of proteins from the hippocampus of mice belonging to the four experimental groups were separated by 4-15% SDS-PAGE CriterionTM […] (Bio-rad, Hercules, CAUSE). […] Therefore, the gel, once the image has been acquired, represents the total of the loaded proteins (Total Load), which will then be used to normalize the specific proteins to be examined. After electrophoresis and gel imaging, proteins are transferred via the semi-dry TransBlot Turbo apparatus (Bio-Rad Laboratories) onto nitrocellulose membranes (Bio-Rad, Hercules, CA, USA). Nitrocellulose membranes are blocked with 3% bovine serum albumin (BSA) in a solution of Tween 20-TBS and incubated overnight at 4° C. using specific primary antibodies: p([…])-GSK3B (1:1000, Santa Cruz, #sc-135653), p(S9)-GSK3β (1:1000, Cell Signaling, #5558S), GSK3β (1:1000 Abcam, #93926) and DYRK1A (1:1000, Cell Signaling, #8765S), MAPK44/42 (1:1000, Cell Signaling, #9102), p[…])-MAPK44/42 (1 1000, Cell Signaling, #9101), Akt (1:2000, Bio-Rad, # vma00253K), p(S473) Akt (1:1000, Cell Signaling, #4060S). After three washes with a T-TBS buffer solution, membranes were incubated for 1 hour at room temperature with the secondary antibodies. Secondary antibodies with peroxidase activity are anti-mouse or anti-rabbit (1:5000, Bio-rad, Hercules, CA, USA). […] Finally, the results obtained were analyzed using the ImageLab program (Bio-rad, Hercules, CA, USA). […] In order to isolate primary hippocampal neurons, hippocampi from Ts and euploid mice were mechanically dissociated in PBS (with Ca^2+ and […]) and centrifuged (3 minutes, 1100 rpm, 25° C.). Subsequently, the pellet was resuspended in 0.25% trypsin solution and centrifuged further for 3 minutes at 1100 rpm at Tamb. At this point, the cell extract was resuspended in MEM 1 culture medium (Minimum Essential Medium complemented with fetal bovine serum (FBS-1%), L-glutamine 200 mM (1%), glucose 25 mM (1%), gentamicin 0.1 mg/ml) and centrifuged for 10 minutes, 1100 rpm at 25° C. […]

Structures are written as SMILES.

As to `N#C[C@@H]1CCCN1C(=O)CNC12CC3CC(CC(O)(C3)C1)C2` [vildagliptin], in the assay with DYRK1A protein, the “levels of the DYRK1A protein in Ts2Cje neurons” value is “significant reduction”. For the same compound, the “activity of the GSK3B protein in Ts2Cje neurons” value in the assay on GSK3b protein is recorded as “significant increase”.
In the same order, the values of `Cn1c(=O)cc(N2CCC[C@@H](N)C2)n(Cc2ccccc2C#N)c1=O` [alogliptin] are “significant reduction” and “significant increase”.
